16 compounds from paper PMC3905170, “Synthesis and structure evaluation of new complex butylarylpiperazin-1-yl derivatives” (Medicinal Chemistry Research, 2013) can be followed below.

The term melting point denotes the temperature, or range, at which the solid turns liquid.

One data set concerns HIV-1IIIB. The experiment in a line: Anti-HIV-1 assay: inhibition of virus-induced cytopathogenicity in MT-4 cells (MTT method). Conditions: MT-4 cells infected with HIV-1IIIB, m.o.i. 0.01, 4-day incubation, read-out: EC50: compound concentration required to achieve 50 % protection of MT-4 cells from the HIV-1-induced cytopathogenicity. The data set is classed as cell-based, human immunodeficiency virus type-1. From the text: Cell line and viruses were purchased from the American Type Culture Collection (ATCC). The absence of mycoplasma contamination was checked periodically by the Hoechst staining method. Cell line supporting the multiplication of human immunodeficiency virus type-1 (HIV-1) was the CD4+ human T-cells containing an integrated HTLV-1 genome (MT-4).
Compound’s activity against HIV-1 was based on inhibition of virus-induced cytopathogenicity in MT-4 cell acutely infected with a multiplicity of infection (m.o.i.) of 0.01. In brief, 50 μl of RPMI containing 1 × 10^4 MT-4 cells were added to each well of flat-bottom microtitre trays, containing 50 μl of RPMI with or without serial dilutions of test compounds. Then, 20 μl of a HIV-1 suspension containing 100 CCID50 was added. After a 4-day incubation at 37 °C, cell viability was determined by the MTT method (Pauwels et al., [1988]).
For orientation: Protection from cytopathic effect is a common read-out in antiviral testing.

The subject of the next data set is MT-4 cells. In words: Cytotoxicity assay in MT-4 cells (MTT method). It is filed as cell-based, human. As for the experimental part:
(§1) Cell line and viruses were purchased from the American Type Culture Collection (ATCC). The absence of mycoplasma contamination was checked periodically by the Hoechst staining method. Cell line supporting the multiplication of human immunodeficiency virus type-1 (HIV-1) was the CD4+ human T-cells containing an integrated HTLV-1 genome (MT-4). Cytotoxicity assays were run in parallel with antiviral assays. Exponentially growing MT-4 cells were seeded at an initial density of 1 × 10^5 cells/ml in 96-well plates in RPMI-1640 medium, supplemented with 10 % fetal bovine serum (FBS), 100 units/ml penicillin G, and 100 μg/ml streptomycin. Cell cultures were then incubated at 37 °C in a humidified 5 % CO2 atmosphere in the absence or presence of serial dilutions of test compounds. Cell viability was determined after 96 h at 37 °C by the 3-(4,5-dimethylthiazol-2-yl)-2,5-diphenyl-tetrazolium bromide (MTT) method (Pauwels et al., [1988]).
On the technique in general: Tetrazolium dyes change colour on reduction, which living cells bring about.

Data set [1] in a line: Cytotoxicity assay in MT-4 cells (MTT method). The data set is classed as cell-based, human. Conditions: human; mock-infected MT-4 cells, 96 h, MTT method; read-out: CC50: compound concentration required to reduce the viability of mock-infected MT-4 cells by 50 %. As for the experimental part: as §1
A further data set concerns the target T1, 5-HT1A receptor (Rattus norvegicus, UniProt P19327).
T1 construct: Ligand studies with native 5-HT1A receptor; from tissue
T1 sequence (P19327 1-422): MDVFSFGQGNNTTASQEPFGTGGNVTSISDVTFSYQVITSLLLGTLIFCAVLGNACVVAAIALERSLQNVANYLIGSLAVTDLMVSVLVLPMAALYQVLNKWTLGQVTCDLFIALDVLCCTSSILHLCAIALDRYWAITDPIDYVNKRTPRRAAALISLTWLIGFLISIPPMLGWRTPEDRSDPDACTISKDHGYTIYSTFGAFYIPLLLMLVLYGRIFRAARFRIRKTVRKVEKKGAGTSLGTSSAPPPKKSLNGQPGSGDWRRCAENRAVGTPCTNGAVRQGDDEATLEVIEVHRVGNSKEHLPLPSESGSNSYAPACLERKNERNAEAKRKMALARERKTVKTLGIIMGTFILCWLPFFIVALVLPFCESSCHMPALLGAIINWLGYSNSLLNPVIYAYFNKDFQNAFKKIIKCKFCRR
The experiment in a line: In vitro ligand binding assay with native 5-HT1A receptor. As for the experimental part:
Ligand studies with native 5-HT1A receptor were conducted according to the methods previously described (Lewgowd et al., [2011]).

[2] abbreviates: Human immunodeficiency virus 1, MT4, 96 h.

Read-outs that look alike come from different tables or passages of the source. Some results are limits rather than exact numbers.

`O=c1cccc2cc3c(-c4ccccc4)c4c(=O)n(CCCCBr)c(=O)c4c(-c4ccccc4)c3c1-2` showed a melting point of 241 to 242 °C.

For the compound “2-{4-[4-(2-Fluorophenyl)piperazin-1-yl]butyl}-4,10-diphenyl-1H,2H,3H,5H-indeno[1,2-f]isoindole-1,3,5-trione [Compound 15]”, in the data set with HIV-1IIIB, the EC50 is more than 100 µM. In the data set with MT-4 cells, this compound registered a CC50 of more than 100 µM.

Consider “2-{4-[4-(4-Fluorophenyl)piperazin-1-yl]butyl}-4,10-diphenyl-1H,2H,3H,5H-indeno[1,2-f]isoindole-1,3,5-trione [Compound 16]”, for which the EC50 in the data set with HIV-1IIIB is more than 100 µM. In the data set with MT-4 cells, this compound gave a CC50 of more than 100 µM.

For the compound “4,10-Diphenyl-2-[4-(4-phenylpiperazin-1-yl)butyl]-1H,2H,3H,5H-indeno[1,2-f]isoindole-1,3,5-trione [Compound 12]”, the EC50 in the data set on HIV-1IIIB was more than 100 µM. The CC50 in the data set on MT-4 cells is more than 100 µM.

“4,10-Diphenyl-2-[4-(4-{2-[2-(trifluoromethyl)phenyl]ethyl}piperazin-1-yl)butyl]-1H,2H,3H,5H-indeno[1,2-f]isoindole-1,3,5-trione [Compound 14]”: the EC50 in the data set on HIV-1IIIB is more than 9 µM. The compound also gave a CC50 in the data set with MT-4 cells of 9 µM.

Take “4,10-Diphenyl-2-{4-[4-(pyridin-2-yl)piperazin-1-yl]butyl}-1H,2H,3H,5H-indeno[1,2-f]isoindole-1,3,5-trione [Compound 13]”: in the data set with HIV-1IIIB, the EC50 is more than 100 µM. For the same compound, the CC50 in the data set with MT-4 cells was more than 100 µM.

Regarding `O=C1C2C(C(=O)N1CCCCN1CCN(c3ccccn3)CC1)C1(c3ccccc3)C(=O)C2(c2ccccc2)c2c1c1ccccc1c1ccccc21` (stereo not drawn) [Compound 3, 1,16-Diphenyl-19-(4-(4-pyridin-2-ylpiperazin-1-yl)butyl)-19-azahexacyclo-[14.5.1.0^2,15.0^3,8.0^9,14.0^17,21]docosa-2,3,5,7,8,9,11,13,14-nonaene-18,20,22-trione], the melting point was 200 to 203 °C. Moreover, the EC50 in the data set with HIV-1IIIB (setting [2]) is more than 90 µM. Also, the CC50 at 96 h in data set [1] is 90 µM.

In turn, `COc1ccccc1N1CCN(CCCCN2C(=O)C3C(C2=O)C2(c4ccccc4)C(=O)C3(c3ccccc3)c3c2c2ccccc2c2ccccc32)CC1` (stereo not drawn) [Compound 4, 19-(4-(4-(2-(Methyloxy)phenyl)piperazin-1-yl)butyl)-1,16-diphenyl-19-azahexa-cyclo[14.5.1.0^2,15.0^3,8.0^9,14.0^17,21]docosa-2,3,5,7,8,9,11,13,14-nonaene-18,20,22-trione] showed a melting point of 197 to 200 °C. For the same compound, the “activity to the 5-HT1A receptor” value at 5-HT1A receptor is reported as “moderate activity”.

`O=C1C2C(C(=O)N1CCCCN1CCN(c3ccc(Cl)cc3)CC1)C1(c3ccccc3)C(=O)C2(c2ccccc2)c2c1c1ccccc1c1ccccc21` (stereo not drawn) [Compound 6, 19-(4-(4-(4-Chlorophenyl)piperazin-1-yl)butyl)-1,16-diphenyl-19-azahexacyclo-[14.5.1.0^2,15.0^3,8.0^9,14.0^17,21]docosa-2,3,5,7,8,9,11,13,14-nonaene-18,20,22-trione] gave a melting point of 220 to 221 °C. For the same compound, the EC50 in the data set on HIV-1IIIB (setting [2]) is more than 100 µM. In data set [1], the CC50 at 96 h is more than 100 µM.

Turning to `O=C1C2C(C(=O)N1CCCCN1CCN(c3ccccc3F)CC1)C1(c3ccccc3)C(=O)C2(c2ccccc2)c2c1c1ccccc1c1ccccc21` (stereo not drawn) [Compound 7, 19-(4-(4-(2-Fluorophenyl)piperazin-1-yl)butyl)-1,16-diphenyl-19-azahexacyclo-[14.5.1.0^2,15.0^3,8.0^9,14.0^17,21]docosa-2,3,5,7,8,9,11,13,14-nonaene-18,20,22-trione], the melting point was in the range of 205 to 207 °C. Also, the EC50 in the data set on HIV-1IIIB (setting [2]) is more than 100 µM. In addition, the CC50 at 96 h in data set [1] was more than 100 µM.

As to `CC(=O)c1ccc(N2CCN(CCCCN3C(=O)C4C(C3=O)C3(c5ccccc5)C(=O)C4(c4ccccc4)c4c3c3ccccc3c3ccccc43)CC2)cc1` (stereo not drawn) [Compound 8, 19-(4-(4-(4-Acetylphenyl)piperazin-1-yl)butyl)-1,16-diphenyl-19-azahexacyclo-[14.5.1.0^2,15.0^3,8.0^9,14.0^17,21]docosa-2,3,5,7,8,9,11,13,14-nonaene-18,20,22-trione], the melting point was 202 to 204 °C. Moreover, the EC50 in the data set on HIV-1IIIB (setting [2]) is more than 100 µM. For the same compound, the CC50 at 96 h in data set [1] was more than 100 µM.

For the compound `O=c1[nH]c(=O)c2c(-c3ccccc3)c3c(c(-c4ccccc4)c12)c(=O)c1ccccc13` [Compound 10, 4,10-diphenyl-1H,2H,3H,5H-indeno[1,2-f]isoindole-1,3,5-trione], in the data set with HIV-1IIIB, the EC50 was more than 9 µM. Further, the CC50 with MT-4 cells was determined as 9 µM.

Take `O=c1c2ccccc2c2c(-c3ccccc3)c3c(=O)n(CCCCN4CCN(c5ccc(Cl)cc5)CC4)c(=O)c3c(-c3ccccc3)c12` [Compound 17, 2-{4-[4-(4-Chlorophenyl)piperazin-1-yl]butyl}-4,10-diphenyl-1H,2H,3H,5H-indeno[1,2-f]isoindole-1,3,5-trione]: the EC50 in the data set with HIV-1IIIB was more than 100 µM. The same compound returned a CC50 with MT-4 cells of more than 100 µM.

`O=c1c2ccccc2c2c(-c3ccccc3)c3c(=O)n(CCCCN4CCN(c5ccccc5Cl)CC4)c(=O)c3c(-c3ccccc3)c12` [Compound 18, 2-{4-[4-(2-Chlorophenyl)piperazin-1-yl]butyl}-4,10-diphenyl-1H,2H,3H,5H-indeno[1,2-f]isoindole-1,3,5-trione]: the EC50 in the data set with HIV-1IIIB is more than 100 µM. Besides, in the data set on MT-4 cells, the CC50 is more than 100 µM.

Compound `COc1ccccc1N1CCN(CCCCn2c(=O)c3c(-c4ccccc4)c4c(=O)c5ccccc5c4c(-c4ccccc4)c3c2=O)CC1` [Compound 19, 2-{4-[4-(2-metoxyphenyl)piperazin-1-yl]butyl}-4,10-diphenyl-1H,2H,3H,5H-indeno[1,2-f]isoindole-1,3,5-trione] showed a melting point of 245 to 246 °C. Moreover, the EC50 in the data set on HIV-1IIIB (setting [2]) was more than 100 µM. For the same compound, the CC50 at 96 h in data set [1] was more than 100 µM.

Take `O=C1Nc2ccc(Cl)cc2[C@@](C#CC2CC2)(C(F)(F)F)O1` [Efavirenz, reference compound]: the EC50 with HIV-1IIIB (setting [2]) worked out at 0.002 µM. In addition, in data set [1], the CC50 at 96 h stood at 45 µM.
